Earlier results in EP0972007B1, “DETERGENT COMPOSITIONS” (UNILEVER PLC, priority 1997, dated 1998).

Settings: for Water Solubility (g/100g): grams of solid to form a saturated solution in 100 grams of water at 20°C

| Water Solubility (g/100g) | solubility in water (at 20°C) | SMILES |
| --- | --- | --- |
| 15 |  | O=P(O)(O)OP(=O)(O)OP(=O)(O)O [Sodium tripolyphosphate anhydrous] |
| >100 | exceeding 100 gms per 100ml water | NC(N)=O [Urea] |

| SMILES | Water Solubility (g/100g) | solubility in water (at 20°C) |
| --- | --- | --- |
| O=BO[O-].[Na+] [Sodium perborate anhydrous] | 3.7 |  |
